Usually Emax stands for the greatest response seen or fitted, relative to the assay's reference. Broadly, the EC50 is the midpoint of the concentration-response curve.

This experiment deals with T1, recombinant human GluN1/GluN2A receptor (Homo sapiens, UniProt Q05586+Q12879).
T1 construct: expressed in transfected cells; host or cells: HEK293, tetracycline-inducible expression
Put plainly: Whole-cell patch clamp of mammalian cells (Syncropatch 384i), NMDA modulation. The conditions noted are these: Table B-2, HEK293 cells, human GluN1/GluN2A, glutamate 1 μM / glycine 100 μM, -80 mV, peak amplitude increase; for EC50: read-out: EC50. Format: cell-based. An excerpt: Whole-Cell Patch Clamp of Mammalian Cells (Syncropatch 384i (Nanion Technologies))
Whole-cell patch clamp electrophysiology was used to investigate the effects of compounds on GluN1/GluN2A N-methyl-D-aspartate (NMDA) glutamate receptors expressed in mammalian cells.
Human embryonic kidney (HEK293) cells expressing the recombinant human GluN1/GluN2A receptor under the control of a tetracycline-inducible expression system were used. Cells were maintained in Dulbecco's Modified Eagle's Medium (DMEM) with 1% glutamine, 10% Tetracycline System Approved fetal bovine serum (FBS), and NMDA inhibitors. Cells were cultured in a humidified 5% CO2 incubator at 37° C. Cells were induced with 50 ng/ml tetracycline 18-24 hours prior to testing. A cocktail of channel blockers was added to the media to prevent cell death.
Cells were 60-80% confluent at the time of harvest. Cells were detached from the flask TrypLE Enzyme Express (Thermo Fisher) at 37° C., and then cold extracellular solution was added to the flask, followed by incubation at 4° C. and then trituration of the cells. The cell solution was then placed on a shaker on the Syncropatch platform at 10° C. with a shake speed of a minimum 200 rpm for at least 30 minutes prior to testing.
Extracellular (EC) solution (in mM) —140 NaCl, 4 KCl, 5 CaCl2, 10 HEPES, 5 Glucose, pH 7.4 with NaOH. All external solutions contained 0.2% DMSO and 0.01% Kolliphor® EL (C5135, Sigma) throughout the experiment.
Intracellular (IC) solution (in mM) —120 CsF, 10 mM EGTA, 10 NaCl, 10 HEPES, 4 NaATP, 2 MgCl2, pH 7.2 with CsOH.
First, the DMSO Master Plate was prepared, in which the DMSO stock of each test compound was serially diluted in 100% DMSO to 1000× the final assay concentration. Immediately prior to assay testing, the compounds were diluted 1:100 by transferring solutions from the DMSO Mast Plate to the Intermediate Plate pre-filled with EC solution using a Biomek FX automated liquid handling system. Compounds were then diluted further with extracellular solution into two pre-incubation plates—1) compound from the Intermediate Plate was mixed with EC solution at a 1:5 dilution to create a 2× Compound Pre-Incubation Plate which was diluted a further 1:2 when added to the Syncropatch for the initial compound pre-incubation. And 2) compound from the Intermediate plate was mixed with EC solution at a 1:10 Dilution to create the 1× Compound Pre-Incubation Plate, which was used for subsequent compound pre-incubations. Finally, a Compound+Agonist Plate was prepared by mixing compound from the 2× Compound Pre-Incubation Plate with 2× concentration of co-agonists in a 1:1 ratio.
Each experiment sequentially included cell catching, sealing, whole-cell formation, liquid application, recording and data acquisition. Whole-cell patch clamp recordings were performed using multi-hole high resistance chips on the SyncroPatch 384i (Nanion Technologies). A steady-state voltage pulse at -80 mV was applied throughout the assay and a 10 second recording window was triggered around 1 second prior to application of co-agonists. Currents were leak corrected and sampled at 5 kHz.
A fast application was used, in which 5 μl co-agonist was rapidly applied at a speed of 30 μl/s and then rapidly removed from the well. To test for modulator activity, the co-agonists glutamate (1 μM) and glycine (100 μM) were applied three times to show activation reproducibility, followed by 120 seconds pre-incubation of test compound alone. The test compound was then re-applied in the presence of co-agonists two times. This was followed by application of the agonist alone, although test compound may not be fully washed from the well prior to this step. Finally, a saturating concentration of co-agonists (glutamate 100 μM/glycine 100 μM) was applied.
The voltage protocol generation data collection and analysis were performed on PatchControll384 and DataControll384. […]
Background: In patch-clamp work, channel activity is measured electrically.

The structures appear in SMILES notation.

T1 sequence (Q12879 23-1464, other chains not shown): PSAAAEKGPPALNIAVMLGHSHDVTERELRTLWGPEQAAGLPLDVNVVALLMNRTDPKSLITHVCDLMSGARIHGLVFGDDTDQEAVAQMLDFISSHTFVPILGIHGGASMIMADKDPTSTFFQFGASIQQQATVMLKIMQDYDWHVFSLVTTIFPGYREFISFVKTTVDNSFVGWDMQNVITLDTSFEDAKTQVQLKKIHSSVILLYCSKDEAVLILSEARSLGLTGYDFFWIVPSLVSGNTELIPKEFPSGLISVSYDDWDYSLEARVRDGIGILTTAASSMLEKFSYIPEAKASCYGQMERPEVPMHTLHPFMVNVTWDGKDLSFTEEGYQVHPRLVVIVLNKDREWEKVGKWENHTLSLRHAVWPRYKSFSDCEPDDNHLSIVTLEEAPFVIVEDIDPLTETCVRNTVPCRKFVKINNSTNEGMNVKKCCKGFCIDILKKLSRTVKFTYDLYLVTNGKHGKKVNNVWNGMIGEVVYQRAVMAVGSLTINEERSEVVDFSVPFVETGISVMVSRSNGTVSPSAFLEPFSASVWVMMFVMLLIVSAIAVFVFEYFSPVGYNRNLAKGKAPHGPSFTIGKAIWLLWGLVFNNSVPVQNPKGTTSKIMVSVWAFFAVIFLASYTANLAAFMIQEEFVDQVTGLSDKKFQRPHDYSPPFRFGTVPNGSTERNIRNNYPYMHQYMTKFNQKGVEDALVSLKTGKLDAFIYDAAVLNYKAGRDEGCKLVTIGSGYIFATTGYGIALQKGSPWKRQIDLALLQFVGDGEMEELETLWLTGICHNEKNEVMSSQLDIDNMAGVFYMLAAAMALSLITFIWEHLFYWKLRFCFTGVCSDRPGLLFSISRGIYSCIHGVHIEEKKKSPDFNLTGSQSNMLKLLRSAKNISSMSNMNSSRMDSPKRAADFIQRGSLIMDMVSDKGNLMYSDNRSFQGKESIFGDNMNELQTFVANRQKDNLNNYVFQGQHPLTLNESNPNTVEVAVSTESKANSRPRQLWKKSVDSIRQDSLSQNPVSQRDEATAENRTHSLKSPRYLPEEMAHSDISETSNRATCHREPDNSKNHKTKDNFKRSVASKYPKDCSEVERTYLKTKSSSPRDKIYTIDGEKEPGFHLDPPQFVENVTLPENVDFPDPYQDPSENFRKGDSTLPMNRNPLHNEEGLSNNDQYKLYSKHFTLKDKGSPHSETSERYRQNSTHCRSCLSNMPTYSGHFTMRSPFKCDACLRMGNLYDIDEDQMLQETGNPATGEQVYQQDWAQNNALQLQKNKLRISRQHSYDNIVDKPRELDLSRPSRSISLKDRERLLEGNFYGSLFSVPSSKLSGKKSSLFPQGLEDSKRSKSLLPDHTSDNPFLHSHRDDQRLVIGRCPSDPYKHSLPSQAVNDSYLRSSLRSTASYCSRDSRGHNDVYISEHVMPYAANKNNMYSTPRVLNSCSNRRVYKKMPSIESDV

Take `CC[C@]1(O)CC[C@@]2(C)[C@@H](CC[C@H]3[C@@H]4[C@H]5C[C@H]5[C@H]([C@H](C)CC[C@](C)(O)C(F)(F)F)[C@@]4(C)CC[C@@H]32)C1` [Compound B-5, (2S,4aS,4bS,6aR,7S,7aR,8aS,8bS,8cR,10aS)-2-ethyl-4a,6a-dimethyl-7-((2R,5S)-6,6,6-trifluoro-5-hydroxy-5-methylhexan-2-yl)octadecahydrocyclopropa[4,5]cyclopenta[1,2-a]phenanthren-2-ol]: the Emax was greater than 200% and the EC50 is 100 to 500 nM.
As for `CC[C@]1(O)CC[C@@]2(C)[C@@H](CC[C@H]3[C@@H]4[C@H]5C[C@H]5[C@H]([C@H](C)CCC(C)(C)O)[C@@]4(C)CC[C@@H]32)C1` [Compound B-6], the Emax was greater than 200% and the concentration giving a half-maximal response (EC50) was in the range of 100 to 500 nM.
In the same order, the values of `CC[C@]1(O)CC[C@@]2(C)[C@@H](CC[C@H]3[C@@H]4[C@H]5C[C@H]5[C@H]([C@H](C)CC[C@@](C)(O)C(F)(F)F)[C@@]4(C)CC[C@@H]32)C1` [Compound B-7, (2S,4aS,4bS,6aR,7S,7aR,8aS,8bS,8cR,10aS)-2-ethyl-4a, 6a-dimethyl-7-((2R,5R)-6,6,6-trifluoro-5-hydroxy-5-methylhexan-2-yl)octadecahydrocyclopropa[4,5]cyclopenta[1,2-a]phenanthren-2-ol] are 100 to 200% and 100 to 500 nM.
As to `CC[C@]1(O)CC[C@@]2(C)[C@@H](CC[C@@H]3[C@@H]2CC[C@@]2(C)[C@H]3C[C@H]3C[C@]32[C@H](C)CCCC(C)(C)O)C1` [Compound B-8, (2aS,4S,6aS,6bS,8aS,8bS,9aS,10aS,10bR)-4-ethyl-8b-((R)-6-hydroxy-6-methylheptan-2-yl)-6a,8a-dimethyloctadecahydrocyclopropa[3,4]cyclopenta[1,2-a]phenanthren-4-ol], the Emax lay in the range of 100 to 200% and the EC50 is greater than 1000 nM.
Turning to `CC[C@]1(O)CC[C@@]2(C)[C@@H](CC[C@@H]3[C@@H]2CC[C@@]2(C)[C@H]3C[C@H]3C[C@]32[C@H](C)CC[C@](C)(O)C(F)(F)F)C1` [Compound B-10, (2aS,4S,6aS,6bS,8aS,8bS,9aS,10aS,10bR)-4-ethyl-6a,8a-dimethyl-8b-((2R,5S)-6,6,6-trifluoro-5-hydroxy-5-methylhexan-2-yl)octadecahydrocyclopropa[3,4]cyclopenta[1,2-a]phenanthren-4-ol], the Emax lay in the range of 100 to 200% and the EC50 lay within 1 to 100 nM.
The like results for `CC[C@]1(O)CC[C@@]2(C)[C@@H](CC[C@@H]3[C@@H]2CC[C@@]2(C)[C@H]3C[C@H]3C[C@]32[C@H](C)CC[C@@](C)(O)C(F)(F)F)C1` [Compound B-11, (2aS,4S,6aS,6bS,8aS,8bS,9aS,10aS,10bR)-4-ethyl-6a,8a-dimethyl-8b-((2R,5R)-6,6,6-trifluoro-5-hydroxy-5-methylhexan-2-yl)octadecahydrocyclopropa[3,4]cyclopenta[1,2-a]phenanthren-4-ol] were, in that order, 100 to 200% and 1 to 100 nM.
Consider `CC[C@]1(O)CC[C@@]2(C)[C@@H](CC[C@H]3[C@@H]4[C@@H](C)C[C@H]([C@H](C)CCCC(C)(C)O)[C@@]4(C)CC[C@@H]32)C1` [Compound B-12, (3S,5S,8R,9S,10S,13R,14S,15S,17R)-3-ethyl-17-((R)-6-hydroxy-6-methylheptan-2-yl)-10,13,15-trimethylhexadecahydro-1H-cyclopenta[a]phenanthren-3-ol], for which the Emax lay within 100 to 200% and the EC50 is 1 to 100 nM.
The like results for `CC[C@]1(O)CC[C@@]2(C)[C@@H](CC[C@H]3[C@@H]4[C@@H](C)C[C@H]([C@H](C)CC[C@@](C)(O)C(F)(F)F)[C@@]4(C)CC[C@@H]32)C1` [Compound B-13, (3S,5S,8R,9S,10S,13R,14S,15S,17R)-3-ethyl-10,13,15-trimethyl-17-((2R,5R)-6,6,6-trifluoro-5-hydroxy-5-methylhexan-2-yl)hexadecahydro-1H-cyclopenta[a]phenanthren-3-ol] were, in that order, greater than 200% and 100 to 500 nM.
For the compound `CC[C@]1(O)CC[C@@]2(C)[C@@H](CC[C@H]3[C@@H]4[C@@H](C)C[C@H]([C@H](C)CC[C@](C)(O)C(F)(F)F)[C@@]4(C)CC[C@@H]32)C1` [Compound B-14, (3S,5S,8R,9S,10S,13R,14S,15S,17R)-3-ethyl-10,13,15-trimethyl-17-((2R,5S)-6,6,6-trifluoro-5-hydroxy-5-methylhexan-2-yl)hexadecahydro-1H-cyclopenta[a]phenanthren-3-ol], the Emax was greater than 200% and the EC50 is 1 to 100 nM.
As to `CC[C@]1(O)CC[C@@]2(C)[C@@H](CC[C@H]3[C@@H]4[C@H](C)C[C@H]([C@H](C)CC[C@](C)(O)C(F)(F)F)[C@@]4(C)CC[C@@H]32)C1` [Compound B-15, (3S,5S,8R,9S,10S,13R,14S,15R,17R)-3-ethyl-10,13,15-trimethyl-17-((2R,5S)-6,6,6-trifluoro-5-hydroxy-5-methylhexan-2-yl)hexadecahydro-1H-cyclopenta[a]phenanthren-3-ol], the Emax lay in the range of 100 to 200% and the EC50 lay within 1 to 100 nM.
In the same order, the values of `CC[C@]1(O)CC[C@@]2(C)[C@@H](CC[C@H]3[C@@H]4[C@H](C)C[C@H]([C@H](C)CC[C@@](C)(O)C(F)(F)F)[C@@]4(C)CC[C@@H]32)C1` [Compound B-16, (3S,5S,8R,9S,10S,13R,14S,15R,17R)-3-ethyl-10,13,15-trimethyl-17-((2R,5R)-6,6,6-trifluoro-5-hydroxy-5-methylhexan-2-yl)hexadecahydro-1H-cyclopenta[a]phenanthren-3-ol] are 100 to 200% and 100 to 500 nM.
The like results for `CC[C@]1(O)CC[C@@]2(C)[C@@H](CC[C@H]3[C@@H]4[C@H](C5CC5)C[C@H]([C@H](C)CCCC(C)(C)O)[C@@]4(C)CC[C@@H]32)C1` [Compound B-17, (3S,5S,8R,9S,10S,13R,14S,15S,17R)-15-cyclopropyl-3-ethyl-17-((R)-6-hydroxy-6-methylheptan-2-yl)-10,13-dimethylhexadecahydro-1H-cyclopenta[a]phenanthren-3-ol] were, in that order, 100 to 200% and 100 to 500 nM.
The like results for `CC[C@]1(O)CC[C@@]2(C)[C@@H](CC[C@H]3[C@@H]4[C@H](C)C[C@H]([C@H](C)CCCC(C)(C)O)[C@@]4(C)CC[C@@H]32)C1` [Compound B-18, (3S,5S,8R,9S,10S,13R,14S,15R,17R)-3-ethyl-17-((R)-6-hydroxy-6-methylheptan-2-yl)-10,13,15-trimethylhexadecahydro-1H-cyclopenta[a]phenanthren-3-ol] were, in that order, 100 to 200% and 1 to 100 nM.
`CC[C@]1(O)CC[C@@]2(C)[C@@H](CC[C@H]3[C@@H]4[C@@H](C5CC5)C[C@H]([C@H](C)CCCC(C)(C)O)[C@@]4(C)CC[C@@H]32)C1` [Compound B-19, (3S,5S,8R,9S,10S,13R,14S,15R,17R)-15-cyclopropyl-3-ethyl-17-((R)-6-hydroxy-6-methylheptan-2-yl)-10,13-dimethylhexadecahydro-1H-cyclopenta[a]phenanthren-3-ol]: the Emax was 100 to 200% and the EC50 is 100 to 500 nM.

(Values after US20240368214A1, “POSITIVE NMDA-MODULATING COMPOUNDS AND METHODS OF USE THEREOF” (SAGE THERAPEUTICS, INC., priority 2021, published 2024).)
